Reference: patent US8188074B2 (priority 2001, dated 2012)
Like-named read-outs stand apart in the source and are kept apart here.

Legend:
[1] = tested on: RIF-1 murine fibrosarcoma cells; test: Cellular uptake in RIF-1 cells; type: cell-based; conditions: 2 h incubation, solubilised in 2% SDS, fluorescence
[2] = Octanol-buffer partition coefficient
Source text: The octanol buffer partition coefficient (p) determines the lipophilicity of the drug.

[3] = patients after administration; cited from earlier work
E. coli [4] = test: Photoinactivation of E. coli; type: cell-based; conditions: for log change in CFU/ml / percentage cell survival / log change CFU/ml: E. coli; for log change CFU/ml: laser light
Method: (§1) Cell inactivation was then measured.

P. aeruginosa = test: Photoinactivation of P. aeruginosa; conditions: 10 μM, laser light (665 nm) 0.1 W
Method: (§2) Stock solutions of the photosensitisers were made up to 5 mM in dimethylsulfoxide (DMSO). The 5 mM stock was further diluted in DMSO to a working concentration of 1 mM. All photosensitisers were stored in foil covered vials at room temperature until required.
(§3) The microorganisms were grown until in the mid-logarithmic phase and then harvested and resuspended.
(§4) The log or stationary phase cells were collected by centrifugation and washed twice in 0.1 M potassium phosphate buffer (pH 7.0). Following washing, the cells were resuspended in the same buffer to an absorbance of 0.87 at 650 nm.
(§5) 25 ml of the prepared cell suspension was incubated with 0.25 mls of a 1 mM stock solution of photosensitiser (giving a final concentration of 10 μM) in a 250 ml sterile foil covered conical flask. The suspension was incubated for 30 minutes in the dark in a 37° C. shaking incubator at 250 rpm.
(§6) After incubation with 10 μM phenothiazinium compound, 10 ml of the bacterial culture was aseptically transferred to a sterile cell. This consisted of a sealed vial with a sealed capillary tube inserted, into which the optical fibre could be placed. […]
(§7) 50 ml of the illuminated and non-illuminated samples of the suspension were removed and diluted in 0.1 M pH 7.0 potassium phosphate buffer. […] Cell inactivation was then measured.

S. aureus = conditions: 10 μM, laser light (665 nm) 0.1 W
Method: as §2, §3, §4, §5, §6, §7

E. coli [5] = tested on: E. coli
C. albicans = test: Photoinactivation of C. albicans; type: cell-based, Candida albicans; conditions: 10 μM; laser light at 0.1 W
Method: as §1

[6] = octanol-buffer partition coefficient
[7] = 30 min with 10 μM, halogen lamp 60 minutes at 1.3 mW/cm^2

CCN(CC)c1ccc2nc3ccc(N(CC)CC)cc3[s+]c2c1.[Cl-] [Compound 6, ethylene blue, reference compound]
Uptake at PDT LD50 [1]: 2.9 nmol/mg protein | Log P [2, 6]: +0.2

Oc1cccc(-c2c3nc(c(-c4cccc(O)c4)c4ccc([nH]4)c(-c4cccc(O)c4)c4nc(c(-c5cccc(O)c5)c5ccc2[nH]5)CC4)C=C3)c1 [Foscan]
period of sensitivity to light [3]: approximately 15 days

CCCCN(CCCC)c1ccc2nc3ccc(N4CCOCC4)cc3[s+]c2c1.[I-] [Compound 24]
Log P [2, 6]: +1.0

3-(N,N-diethanolamino)-7-(N,N-dipentylamino)-phenothiazin-5-ium iodide [Compound 28]
Log P [2]: +1.1

CCCCCCN(CCCCCC)c1ccc2nc3ccc(N(CCCCCC)CCCCCC)cc3[s+]c2c1.[Br-] [Compound 4]
Uptake at PDT LD50 [1]: 1.6 nmol/mg protein | Log P [2, 6]: +1.3 | log change in CFU/ml (E. coli [4]; [7]): 0.19 log10 | percentage cell survival (E. coli [4]; [7]): 65.3%

3,7-(tetra-n-butylamino)-phenothiazin-5-ium [Compound 2]
cell kill (P. aeruginosa; 2 minutes): greater than 99% | cell kill (P. aeruginosa; 10 minutes): ~4 logs | bacteria inactivated (S. aureus; 1 minute): ~99% | cell kill (S. aureus; 10 minutes): ~5 logs | growth of an E. coli culture in the dark compared to control, FIG. 11 (E. coli [5]; 10 μM in growth media, dark, 37° C., 6 hours, turbidity at 550 nm): greatest inhibition | growth of E. coli after addition of photosensitiser at 3 hours, in the dark, FIG. 12 (E. coli [5]; 10 μM, dark): continuing growth | growth of E. coli after addition of photosensitiser at 3 hours, in the light, FIG. 12 (E. coli [5]; 10 μM, light): complete elimination of growth | killing of Candida albicans in the light, FIG. 16 (C. albicans): readily destroyed | log change in CFU/ml of washed versus unwashed E. coli cells, FIG. 10 (E. coli [4]; 10 μM, washed twice, laser light (665 nm) 0.1 W for 4 minutes): little difference | log change in CFU/ml (E. coli [4]; [7]): 5.1 log10 | percentage cell survival (E. coli [4]; [7]): 0.001% | log change in CFU/ml (E. coli [4]; 30 min with 10 μM, illuminated 15 minutes at 1.3 mW/cm^2): 4.59 log10 units | log change in CFU/ml (E. coli [4]; 30 min with 50 μM, illuminated 15 minutes at 1.3 mW/cm^2): 2.15 units | log change CFU/ml (E. coli [4]; 14 minute illumination at 0.1 W): 5.69 log | log change CFU/ml (E. coli [4]; 20 minute illumination at 0.1 W, number of CFU too small to be statistically reliable): ~8.5 units | antibacterial activity, E. coli resuspended in nutrient medium, FIG. 7 (E. coli [4]; nutrient medium, 10 μM, 60 minutes at 1.3 mW/cm^2): highest antibacterial activity
